Common to all, as to assay: relative viability (nuclei count vs DMSO), 5 days (fraction); higher = more cells survive
Compound in assay [1]: CC1CC(=O)N(C2=CN=C(N=C2N1C3CCCC3)NC4=C(C=C(C=C4)C(=O)NC5CCN(CC5)C)OC)C [NPK76-II-72-1] + C[C@]1(O)C[C@@H](c2nc(-c3ccc4ccc(-c5ccccc5)nc4c3)c3c(N)nccn32)C1 [Linsitinib] (partner 1 µM)
In a few lines:
(§1)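 Relative viability divides the nuclei count in treated wells by that in vehicle wells. Lung cancer cell lines were seeded in 1536-well plates, dosed by pin tool the next day, and fixed and stained after 5 days in one step with final 0.05% Triton X-100, 1% formaldehyde and 1 ug/ml Hoechst. Dosing was a single drug or a fixed anchor-drug dose plus five library-drug doses (not always all listed) in √10 steps, and values are medians of duplicate plates imaged at 4×.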

Compound in assay [2]: CC[C@@H]1C(=O)N(C)c2cnc(Nc3ccc(C(=O)NC4CCN(C)CC4)cc3OC)nc2N1C1CCCC1 [BI-2536] + Nc1ncn([C@H]2C[C@H](O)[C@@H](CO)O2)c(=O)n1 [Decitabine] (partner 2 µM)
In a few lines: as §1

Compound in assay [3]: CC[C@@H]1C(=O)N(C)c2cnc(Nc3ccc(C(=O)NC4CCN(C)CC4)cc3OC)nc2N1C1CCCC1 [BI-2536] + Cc1cc(Nc2cc(N3CCN(C)CC3)nc(Sc3ccc(NC(=O)C4CC4)cc3)n2)n[nH]1 [Tozasertib] (partner 0.1 µM)
In a few lines:
as §1

Compound in assay [4]: CC1CC(=O)N(C2=CN=C(N=C2N1C3CCCC3)NC4=C(C=C(C=C4)C(=O)NC5CCN(CC5)C)OC)C [NPK76-II-72-1] + CS(=O)(=O)CCNCc1ccc(-c2ccc3ncnc(Nc4ccc(OCc5cccc(F)c5)c(Cl)c4)c3c2)o1 [Lapatinib] (partner 2 µM)
Summed up: as §1

Here are results for one cell line from the supplement of paper PMC10307832.

Consider UMC-11, for which the relative viability in assay [1] (first compound 0.01 µM) is 1; in assay [1] (first compound 0.03162 µM) it was 1.08; in assay [1] (first compound 0.1 µM), 1; in assay [1] (first compound 0.3162 µM) it was 0.927; in assay [1] (first compound 1 µM) it was 0.976; in assay [2] (first compound 0.01 µM) it was 0.568. Further, the relative viability in assay [2] (first compound 0.03162 µM) is 0.306; in assay [2] (first compound 0.1 µM), 0.232; in assay [2] (first compound 0.3162 µM) it was 0.265; in assay [2] (first compound 1 µM), 0.28; in assay [3] (first compound 0.01 µM) it was 0.184; in assay [3] (first compound 0.03162 µM), 0.203. Also, the relative viability in assay [3] (first compound 0.1 µM) was 0.198; in assay [3] (first compound 0.3162 µM), 0.31; in assay [3] (first compound 1 µM) it was 0.361; in assay [4] (first compound 0.01 µM), 0.923; in assay [4] (first compound 0.03162 µM) it was 1.07; in assay [4] (first compound 0.1 µM), 1.08. In addition, the relative viability came out at 0.782 in assay [4] (first compound 0.3162 µM) and 1.05 in assay [4] (first compound 1 µM).
